According to article PMC5341858, “Molecular regulation of apoptotic machinery and lipid metabolism by mTORC1/mTORC2 dual inhibitors in preclinical models of HER2+/PIK3CAmut breast cancer” (Oncotarget, 2016):

What was measured:
Experiment in all cases: KINOMEscan binding assay
KIT (V559D, T670I) = target: T1, KIT (V559D, T670I) (Homo sapiens, UniProt P10721, T670I/V559D); settings: 1000 nM, percent control relative to vehicle
T1 construct: purchased DiscoveRx KINOMEscan
Excerpt: (§1) IC50 values were generated using Graphpad PRISM 5 software.

PIK3CG = PIK3CG (Homo sapiens, UniProt P48736)
Sequence of PIK3CG (P48736 whole entry): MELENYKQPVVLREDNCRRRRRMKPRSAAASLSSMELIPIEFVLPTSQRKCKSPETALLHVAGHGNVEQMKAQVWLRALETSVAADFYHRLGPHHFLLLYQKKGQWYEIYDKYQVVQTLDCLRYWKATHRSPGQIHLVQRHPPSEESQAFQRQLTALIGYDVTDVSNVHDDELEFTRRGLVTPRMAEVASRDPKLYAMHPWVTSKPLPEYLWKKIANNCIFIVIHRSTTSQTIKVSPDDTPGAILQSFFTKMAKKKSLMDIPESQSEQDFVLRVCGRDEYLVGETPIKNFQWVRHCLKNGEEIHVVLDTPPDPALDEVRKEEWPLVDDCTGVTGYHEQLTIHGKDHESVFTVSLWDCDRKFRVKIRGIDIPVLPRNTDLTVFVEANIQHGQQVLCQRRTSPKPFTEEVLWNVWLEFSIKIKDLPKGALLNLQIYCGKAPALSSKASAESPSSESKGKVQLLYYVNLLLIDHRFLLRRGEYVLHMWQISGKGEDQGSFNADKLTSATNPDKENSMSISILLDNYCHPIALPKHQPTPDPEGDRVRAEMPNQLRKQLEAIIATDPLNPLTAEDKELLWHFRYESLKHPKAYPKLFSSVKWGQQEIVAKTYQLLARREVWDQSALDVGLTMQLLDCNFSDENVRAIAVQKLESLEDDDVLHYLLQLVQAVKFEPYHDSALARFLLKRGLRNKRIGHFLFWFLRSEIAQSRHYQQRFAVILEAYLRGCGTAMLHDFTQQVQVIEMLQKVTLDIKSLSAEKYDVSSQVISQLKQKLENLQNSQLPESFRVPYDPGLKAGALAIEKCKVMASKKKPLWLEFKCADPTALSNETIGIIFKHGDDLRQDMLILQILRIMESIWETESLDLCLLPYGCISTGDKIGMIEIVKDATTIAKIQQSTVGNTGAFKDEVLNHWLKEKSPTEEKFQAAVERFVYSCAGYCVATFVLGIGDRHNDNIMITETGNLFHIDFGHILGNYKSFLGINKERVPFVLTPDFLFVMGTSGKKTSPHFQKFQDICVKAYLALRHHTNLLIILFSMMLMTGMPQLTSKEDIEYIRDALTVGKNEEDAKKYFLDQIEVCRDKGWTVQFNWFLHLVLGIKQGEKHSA
Excerpt: as §1

TSSK1B = target: T2, TSSK1B (Homo sapiens, UniProt Q9BXA7); settings: 1000 nM, percent control relative to vehicle
T2 construct: purchased DiscoveRx KINOMEscan
Excerpt: as §1

CSF1R = target: T3, CSF1R (Homo sapiens, UniProt P07333); settings: 1000 nM, percent control relative to vehicle
T3 construct: purchased DiscoveRx KINOMEscan
Excerpt: as §1

IKK-alpha = target: T4, IKK-alpha (Homo sapiens, UniProt O15111); settings: 1000 nM, percent control relative to vehicle
T4 construct: purchased DiscoveRx KINOMEscan
Excerpt: as §1

ERK1 = target: T5, ERK1 (Homo sapiens, UniProt P27361); settings: 1000 nM, percent control relative to vehicle
T5 construct: purchased DiscoveRx KINOMEscan
Excerpt: as §1

RET = target: T6, RET (Homo sapiens, UniProt P07949); settings: 1000 nM, percent control relative to vehicle
T6 construct: purchased DiscoveRx KINOMEscan
Excerpt: as §1

ZAP70 = target: T7, ZAP70 (Homo sapiens, UniProt P43403); settings: 1000 nM, percent control relative to vehicle
T7 construct: purchased DiscoveRx KINOMEscan
T7 sequence (P43403 whole entry): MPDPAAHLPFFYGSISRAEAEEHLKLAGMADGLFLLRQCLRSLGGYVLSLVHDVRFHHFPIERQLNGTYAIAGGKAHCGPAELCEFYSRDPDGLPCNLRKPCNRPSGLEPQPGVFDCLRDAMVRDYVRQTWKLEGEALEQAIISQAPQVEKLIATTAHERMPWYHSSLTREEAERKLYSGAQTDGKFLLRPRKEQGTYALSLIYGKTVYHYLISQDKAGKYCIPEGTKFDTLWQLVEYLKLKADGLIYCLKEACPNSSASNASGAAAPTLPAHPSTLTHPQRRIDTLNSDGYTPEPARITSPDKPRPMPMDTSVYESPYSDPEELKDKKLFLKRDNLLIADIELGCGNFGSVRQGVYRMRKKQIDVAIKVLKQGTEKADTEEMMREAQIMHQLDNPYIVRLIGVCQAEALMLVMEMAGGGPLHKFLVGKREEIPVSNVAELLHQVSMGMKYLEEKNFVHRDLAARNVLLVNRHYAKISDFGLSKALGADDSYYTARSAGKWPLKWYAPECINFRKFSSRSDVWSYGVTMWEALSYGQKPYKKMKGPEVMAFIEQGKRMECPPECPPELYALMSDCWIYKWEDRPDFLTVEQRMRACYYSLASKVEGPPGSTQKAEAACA
Excerpt: as §1

FGFR2 = target: T8, FGFR2 (Homo sapiens, UniProt P21802); settings: 1000 nM, percent control relative to vehicle
T8 construct: purchased DiscoveRx KINOMEscan
Excerpt: as §1

IGF1R = target: T9, IGF1R (Homo sapiens, UniProt P08069); settings: 1000 nM, percent control relative to vehicle
T9 construct: purchased DiscoveRx KINOMEscan
Excerpt: as §1

RIOK2 = target: T10, RIOK2 (Homo sapiens, UniProt Q9BVS4); settings: 1000 nM, percent control relative to vehicle
T10 construct: purchased DiscoveRx KINOMEscan
Excerpt: as §1

PIK3CB = PIK3CB (Homo sapiens, UniProt P42338)
Excerpt: as §1

MEK2 = target: T11, MEK2 (Homo sapiens, UniProt P36507); settings: 1000 nM, percent control relative to vehicle
T11 construct: purchased DiscoveRx KINOMEscan
Excerpt: as §1

ROCK2 = target: T12, ROCK2 (Homo sapiens, UniProt O75116); settings: 1000 nM, percent control relative to vehicle
T12 construct: purchased DiscoveRx KINOMEscan
Excerpt: as §1

PDGFRB = target: T13, PDGFRB (Homo sapiens, UniProt P09619); settings: 1000 nM, percent control relative to vehicle
T13 construct: purchased DiscoveRx KINOMEscan
T13 sequence (P09619 33-1106): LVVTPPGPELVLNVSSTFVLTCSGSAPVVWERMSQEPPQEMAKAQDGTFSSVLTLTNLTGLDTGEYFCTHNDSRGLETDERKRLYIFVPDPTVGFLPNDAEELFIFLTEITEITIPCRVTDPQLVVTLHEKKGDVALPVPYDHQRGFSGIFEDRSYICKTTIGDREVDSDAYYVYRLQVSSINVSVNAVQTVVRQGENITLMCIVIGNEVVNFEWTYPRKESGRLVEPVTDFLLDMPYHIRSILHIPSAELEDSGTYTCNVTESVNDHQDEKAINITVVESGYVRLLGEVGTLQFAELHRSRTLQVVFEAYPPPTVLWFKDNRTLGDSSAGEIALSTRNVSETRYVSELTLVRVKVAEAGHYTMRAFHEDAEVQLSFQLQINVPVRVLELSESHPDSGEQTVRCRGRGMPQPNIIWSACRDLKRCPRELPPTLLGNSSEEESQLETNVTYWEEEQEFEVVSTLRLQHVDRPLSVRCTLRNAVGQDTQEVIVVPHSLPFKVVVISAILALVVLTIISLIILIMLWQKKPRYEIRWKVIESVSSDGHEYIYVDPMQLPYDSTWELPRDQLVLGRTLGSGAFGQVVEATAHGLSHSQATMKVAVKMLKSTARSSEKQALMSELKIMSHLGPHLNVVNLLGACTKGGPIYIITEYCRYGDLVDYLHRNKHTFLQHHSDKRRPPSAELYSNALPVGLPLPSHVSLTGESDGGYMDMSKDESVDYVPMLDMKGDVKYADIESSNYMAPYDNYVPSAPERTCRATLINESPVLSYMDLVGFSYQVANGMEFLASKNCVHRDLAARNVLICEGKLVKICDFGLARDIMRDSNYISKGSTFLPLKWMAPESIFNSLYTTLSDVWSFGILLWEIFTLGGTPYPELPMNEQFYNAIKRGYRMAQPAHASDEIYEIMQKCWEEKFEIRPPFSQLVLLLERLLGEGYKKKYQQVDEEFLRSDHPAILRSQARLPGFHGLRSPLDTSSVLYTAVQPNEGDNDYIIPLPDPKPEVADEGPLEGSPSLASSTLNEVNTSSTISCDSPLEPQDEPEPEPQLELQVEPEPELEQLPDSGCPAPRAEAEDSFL
Excerpt: as §1

PAK1 = target: T14, PAK1 (Homo sapiens, UniProt Q13153); settings: 1000 nM, percent control relative to vehicle
T14 construct: purchased DiscoveRx KINOMEscan
Excerpt: as §1

CSNK1D = target: T15, CSNK1D (Homo sapiens, UniProt P48730); settings: 1000 nM, percent control relative to vehicle
T15 construct: purchased DiscoveRx KINOMEscan
Excerpt: as §1

PKAC-alpha = target: T16, PKAC-alpha (Homo sapiens, UniProt P17612); settings: 1000 nM, percent control relative to vehicle
T16 construct: purchased DiscoveRx KINOMEscan
Excerpt: as §1

PIM3 = target: T17, PIM3 (Homo sapiens, UniProt Q86V86); settings: 1000 nM, percent control relative to vehicle
T17 construct: purchased DiscoveRx KINOMEscan
Excerpt: as §1

PCTK1 = target: T18, PCTK1 (Homo sapiens, UniProt Q00536); settings: 1000 nM, percent control relative to vehicle
T18 construct: purchased DiscoveRx KINOMEscan
Excerpt: as §1

ABL1-nonphosphorylated = target: T19, ABL1-nonphosphorylated (Homo sapiens, UniProt P00519); settings: 1000 nM, percent control relative to vehicle
T19 construct: purchased DiscoveRx KINOMEscan
T19 sequence (P00519 whole entry): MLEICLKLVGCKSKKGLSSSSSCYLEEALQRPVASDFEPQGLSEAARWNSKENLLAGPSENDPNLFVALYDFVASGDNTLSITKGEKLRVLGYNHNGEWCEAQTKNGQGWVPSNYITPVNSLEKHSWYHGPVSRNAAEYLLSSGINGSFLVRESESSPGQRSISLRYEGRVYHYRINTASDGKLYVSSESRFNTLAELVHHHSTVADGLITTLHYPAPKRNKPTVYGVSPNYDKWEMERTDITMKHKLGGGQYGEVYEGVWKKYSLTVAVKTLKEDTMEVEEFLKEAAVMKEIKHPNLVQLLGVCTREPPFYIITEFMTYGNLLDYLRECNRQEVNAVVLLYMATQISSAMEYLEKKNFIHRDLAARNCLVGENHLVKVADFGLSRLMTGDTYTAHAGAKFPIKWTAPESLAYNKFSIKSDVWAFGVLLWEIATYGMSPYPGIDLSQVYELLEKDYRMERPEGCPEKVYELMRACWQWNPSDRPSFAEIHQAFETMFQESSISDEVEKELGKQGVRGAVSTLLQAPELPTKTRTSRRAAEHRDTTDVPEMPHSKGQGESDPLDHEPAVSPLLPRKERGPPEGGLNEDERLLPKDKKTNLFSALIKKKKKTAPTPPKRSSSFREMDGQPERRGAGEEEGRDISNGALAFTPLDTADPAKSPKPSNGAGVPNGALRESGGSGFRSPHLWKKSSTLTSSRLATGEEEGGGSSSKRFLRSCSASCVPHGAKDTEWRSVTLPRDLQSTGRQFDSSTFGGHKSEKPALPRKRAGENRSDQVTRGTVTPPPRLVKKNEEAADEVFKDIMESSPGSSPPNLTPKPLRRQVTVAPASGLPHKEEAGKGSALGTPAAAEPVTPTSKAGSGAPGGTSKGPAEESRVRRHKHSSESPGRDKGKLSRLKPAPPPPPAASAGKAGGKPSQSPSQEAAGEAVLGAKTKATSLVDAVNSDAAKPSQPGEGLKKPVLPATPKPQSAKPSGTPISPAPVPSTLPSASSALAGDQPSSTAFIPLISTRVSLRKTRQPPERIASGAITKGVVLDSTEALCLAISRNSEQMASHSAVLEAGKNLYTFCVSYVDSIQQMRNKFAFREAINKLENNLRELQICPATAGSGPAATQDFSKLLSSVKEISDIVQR
Excerpt: as §1

p38-alpha = target: T20, p38-alpha (Homo sapiens, UniProt Q16539); settings: 1000 nM, percent control relative to vehicle
T20 construct: purchased DiscoveRx KINOMEscan
Excerpt: as §1

SRC = target: T21, SRC (Homo sapiens, UniProt P12931); settings: 1000 nM, percent control relative to vehicle
T21 construct: purchased DiscoveRx KINOMEscan
Excerpt: as §1

PDGFRA = target: T22, PDGFRA (Homo sapiens, UniProt P16234); settings: 1000 nM, percent control relative to vehicle
T22 construct: purchased DiscoveRx KINOMEscan
Excerpt: as §1

LKB1 = target: T23, LKB1 (Homo sapiens, UniProt Q15831); settings: 1000 nM, percent control relative to vehicle
T23 construct: purchased DiscoveRx KINOMEscan
Excerpt: as §1

TGFBR1 = target: T24, TGFBR1 (Homo sapiens, UniProt P36897); settings: 1000 nM, percent control relative to vehicle
T24 construct: purchased DiscoveRx KINOMEscan
Excerpt: as §1

CSNK1G2 = target: T25, CSNK1G2 (Homo sapiens, UniProt P78368); settings: 1000 nM, percent control relative to vehicle
T25 construct: purchased DiscoveRx KINOMEscan
Excerpt: as §1

PLK3 = target: T26, PLK3 (Homo sapiens, UniProt Q9H4B4); settings: 1000 nM, percent control relative to vehicle
T26 construct: purchased DiscoveRx KINOMEscan
Excerpt: as §1

PIM1 = target: T27, PIM1 (Homo sapiens, UniProt P11309); settings: 1000 nM, percent control relative to vehicle
T27 construct: purchased DiscoveRx KINOMEscan
Excerpt: as §1

CDK2 = target: T28, CDK2 (Homo sapiens, UniProt P24941); settings: 1000 nM, percent control relative to vehicle
T28 construct: purchased DiscoveRx KINOMEscan
Excerpt: as §1

SRPK3 = target: T29, SRPK3 (Homo sapiens, UniProt Q9UPE1); settings: 1000 nM, percent control relative to vehicle
T29 construct: purchased DiscoveRx KINOMEscan
Excerpt: as §1

CDK3 = target: T30, CDK3 (Homo sapiens, UniProt Q00526); settings: 1000 nM, percent control relative to vehicle
T30 construct: purchased DiscoveRx KINOMEscan
Excerpt: as §1

VEGFR2 = target: T31, VEGFR2 (Homo sapiens, UniProt P35968); settings: 1000 nM, percent control relative to vehicle
T31 construct: purchased DiscoveRx KINOMEscan
Excerpt: as §1

PIK3CA = PIK3CA (Homo sapiens, UniProt P42336)
Sequence of PIK3CA (P42336 whole entry): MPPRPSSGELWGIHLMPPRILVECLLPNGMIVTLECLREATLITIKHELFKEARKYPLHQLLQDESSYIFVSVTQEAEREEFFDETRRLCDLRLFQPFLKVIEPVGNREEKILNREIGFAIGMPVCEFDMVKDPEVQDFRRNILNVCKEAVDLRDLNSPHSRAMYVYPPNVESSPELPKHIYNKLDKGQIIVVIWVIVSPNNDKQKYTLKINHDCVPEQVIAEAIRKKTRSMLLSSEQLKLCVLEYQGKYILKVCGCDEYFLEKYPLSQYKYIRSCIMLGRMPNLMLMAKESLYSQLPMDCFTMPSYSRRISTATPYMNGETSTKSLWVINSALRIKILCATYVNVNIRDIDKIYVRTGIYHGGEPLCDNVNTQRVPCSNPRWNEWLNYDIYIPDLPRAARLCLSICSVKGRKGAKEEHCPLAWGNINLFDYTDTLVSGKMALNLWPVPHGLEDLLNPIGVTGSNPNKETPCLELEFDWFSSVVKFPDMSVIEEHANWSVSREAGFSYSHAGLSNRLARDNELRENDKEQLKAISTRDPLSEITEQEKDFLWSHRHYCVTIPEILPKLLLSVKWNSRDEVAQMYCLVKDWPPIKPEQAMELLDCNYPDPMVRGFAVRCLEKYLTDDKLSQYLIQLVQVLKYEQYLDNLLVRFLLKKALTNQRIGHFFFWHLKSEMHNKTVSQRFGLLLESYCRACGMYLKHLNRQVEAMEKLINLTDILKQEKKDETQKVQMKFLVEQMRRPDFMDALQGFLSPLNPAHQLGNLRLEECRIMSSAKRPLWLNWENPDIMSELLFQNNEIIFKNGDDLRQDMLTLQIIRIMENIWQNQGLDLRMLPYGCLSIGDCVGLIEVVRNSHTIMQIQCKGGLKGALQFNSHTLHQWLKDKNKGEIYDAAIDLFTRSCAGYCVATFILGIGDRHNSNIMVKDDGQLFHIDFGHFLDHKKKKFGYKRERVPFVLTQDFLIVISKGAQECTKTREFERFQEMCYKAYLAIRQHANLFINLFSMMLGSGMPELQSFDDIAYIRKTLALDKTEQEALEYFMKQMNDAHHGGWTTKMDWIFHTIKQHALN
Excerpt: as §1

TRKA = target: T32, TRKA (Homo sapiens, UniProt P04629); settings: 1000 nM, percent control relative to vehicle
T32 construct: purchased DiscoveRx KINOMEscan
Excerpt: as §1

CDK7 = target: T33, CDK7 (Homo sapiens, UniProt P50613); settings: 1000 nM, percent control relative to vehicle
T33 construct: purchased DiscoveRx KINOMEscan
Excerpt: as §1

ADCK3 = target: T34, ADCK3 (Homo sapiens, UniProt Q8NI60); settings: 1000 nM, percent control relative to vehicle
T34 construct: purchased DiscoveRx KINOMEscan
Excerpt: as §1

PLK1 = target: T35, PLK1 (Homo sapiens, UniProt P53350); settings: 1000 nM, percent control relative to vehicle
T35 construct: purchased DiscoveRx KINOMEscan
Excerpt: as §1

ULK2 = target: T36, ULK2 (Homo sapiens, UniProt Q8IYT8); settings: 1000 nM, percent control relative to vehicle
T36 construct: purchased DiscoveRx KINOMEscan
Excerpt: as §1

JNK2 = target: T37, JNK2 (Homo sapiens, UniProt P45984); settings: 1000 nM, percent control relative to vehicle
T37 construct: purchased DiscoveRx KINOMEscan
Excerpt: as §1

p38-beta = target: T38, p38-beta (Homo sapiens, UniProt Q15759); settings: 1000 nM, percent control relative to vehicle
T38 construct: purchased DiscoveRx KINOMEscan
Excerpt: as §1

EGFR = target: T39, EGFR (Homo sapiens, UniProt P00533); settings: 1000 nM, percent control relative to vehicle
T39 construct: purchased DiscoveRx KINOMEscan
Excerpt: as §1

[1] = target: T40, TYK2 (JH1domain-catalytic) (Homo sapiens, UniProt P29597); settings: 1000 nM, percent control relative to vehicle
T40 construct: TYK2 (JH1domain-catalytic); purchased DiscoveRx KINOMEscan
Excerpt: as §1

SNARK = target: T41, SNARK (Homo sapiens, UniProt Q9H093); settings: 1000 nM, percent control relative to vehicle
T41 construct: purchased DiscoveRx KINOMEscan
Excerpt: as §1

KIT = target: T42, KIT (Homo sapiens, UniProt P10721); settings: 1000 nM, percent control relative to vehicle
T42 construct: purchased DiscoveRx KINOMEscan
Excerpt: as §1

[2] = 1000 nM, percent control relative to vehicle

In the case of `CNC(=O)c1cccc(-c2ccc3c(N4C5CCC4COC5)nc(N4CCOC[C@@H]4C)nc3n2)c1` [MTI-31], the “% Control” value (KIT (V559D, T670I)) is reported as 100%, the Kd (PIK3CG) is reported as > 1000 nM and the “% Control” value (PIK3CG; [2]) is reported as 100%. The “% Control” value (TSSK1B) was 100%, the “% Control” value (CSF1R) was 99% and the “% Control” value (IKK-alpha) was 82%. The “% Control” value (ERK1) was 100%, the “% Control” value (RET) was 100% and the “% Control” value (ZAP70) was 72%. For the same compound, the “% Control” value (FGFR2) was 100%, the “% Control” value (IGF1R) was 100% and the “% Control” value (RIOK2) was 80%. For the same compound, the Kd (PIK3CB) was > 1000 nM, the “% Control” value (MEK2) was 75% and the “% Control” value (ROCK2) was 73%. For the same compound, the “% Control” value (PDGFRB) was 100%, the “% Control” value (PAK1) was 100% and the “% Control” value (CSNK1D) was 80%. For the same compound, the “% Control” value (PKAC-alpha) was 98%, the “% Control” value (PIM3) was 100% and the “% Control” value (PCTK1) was 87%. For the same compound, the “% Control” value (ABL1-nonphosphorylated) was 52%, the “% Control” value (p38-alpha) was 100% and the “% Control” value (SRC) was 100%. For the same compound, the “% Control” value (PDGFRA) was 93%, the “% Control” value (LKB1) was 100% and the “% Control” value (TGFBR1) was 93%. The “% Control” value (CSNK1G2) was 100%, the “% Control” value (PLK3) was 92% and the “% Control” value (PIM1) was 100%. For the same compound, the “% Control” value (CDK2) was 84%, the “% Control” value (SRPK3) was 90% and the “% Control” value (CDK3) was 99%. The “% Control” value (VEGFR2) was 98%, the Kd (PIK3CA) was > 1000 nM and the “% Control” value (PIK3CA; [2]) was 100%. The “% Control” value (TRKA) was 84%, the “% Control” value (CDK7) was 99% and the “% Control” value (ADCK3) was 97%. For the same compound, the “% Control” value (PLK1) was 78%, the “% Control” value (ULK2) was 80% and the “% Control” value (JNK2) was 96%. The “% Control” value (p38-beta) was 100%, the “% Control” value (EGFR) was 94% and the “% Control” value [1] was 63%. The “% Control” value (SNARK) was 89% and the “% Control” value (KIT) was 100%.
